Data set [1] has as its target T1, CK1ε (Homo sapiens, UniProt P49674). Nature of the data set: CK1ε kinase activity assay (Caliper, FAM-labelled polypeptide). It is filed as biochemical. As to the method: The in-vitro assay of inhibitory activity of the compound herein against CK1ε kinase was:
(1) preparation of 1× kinase basic buffer and stop buffer: • 1×kinase basic buffer: 50 mM HEPES, pH 7.5; and 0.0015% Brij-35; • stop buffer: 100 mM HEPES, pH 7.5; 0.015% Brij-35; 0.2% Coating Reagent #3; and 50 mM EDTA.
(2) preparation of the test compound: • a 50× (“n×” represents dilution factor, same hereafter) stock solution of the compound with DMSO (10 mM, DMSO) to obtain stock solution I for use; […] of stock solution I was placed in a 96-well plate, each compound sample was diluted by 5-fold serial dilution till 10 concentrations was obtained while ensuring 10 μl of drug solution in each well; meanwhile, 100 μl of DMSO was used as a blank control group and a negative control group without enzyme substrate; • a separate 96-well plate was prepared, and to 10 μl of the above compound,
90 μl of 1× kinase foundation buffer was added, mixed well for 10 min to obtain a mixture.

The subject of the next data set is OCI-LY10 cells. Nature of the data set: In-vitro anti-tumor activity, OCI-LY10 cells, CCK-8. Type of data set: cell-based, human. The note with it: for IC50: Homo sapiens, OCI-LY10, 72h, CCK-8. The method, then:
The in-vitro anti-tumor activities of the synthesized compounds were determined using a diffuse large B-cell lymphoma (OCI-LY10) cell strain:
Drug preparation method: The drug was dissolved in DMSO to make a stock solution of 10 mM and diluted in a certain ratio to obtain 7 different concentrations (test concentration: 100×).
In vitro culture of tumor cells: The selected OCI-LY10 cells were incubated with a medium of IMDM+fetal bovine serum in a 5% CO2 cell culture incubator at 37° C., and were passaged when the cell density grew to 70-90% (adherent cells were passaged after digestion with Duck's EDTA) for later experiments as needed. Four thousand cells/200 μl/well were seeded in a 96-well plate and incubated overnight in a 5% CO2 cell incubator at 37° C. Two μl of the compounds were dispensed in each well at final concentrations of […], and incubation was performed together for 72h in a 5% CO2 cell incubator at 37° C. with DMSO (2%) as control. After 72h, 20 μl of CCK-8 solution was added and the plate was placed in a 5% CO2 cell culture incubator at 37° C. for 4h. Wells with the corresponding amounts of cell culture medium and CCK-8 solution but without cells were used as blank controls. The absorbance (OD values) was measured at 450 nm using an enzyme marker, and the obtained data were used to calculate the IC50.

Data set [2] is described as follows: Bioavailability study in rats. Type of data set: in vivo, SD rats. The conditions noted are these: rat. As to the method: SD rats were used as the experimental animals, to which drugs of 10 mg/kg were administered by gavage and 1 mg/kg by tail intravenous injection. […] Whole blood (0.3 ml) was collected, 0.1 ml of plasma was separated by centrifugation at 2000 g for 10 min, and the samples were analyzed by LC-MS/MS.

Data set [3] has as its target T1, CK1ε. The conditions noted are these: cited from earlier work.
For the next data set, the system named is OCI-LY10 xenograft tumor. Nature of the data set: In vivo pharmacodynamic study, OCI-LY10 subcutaneous xenograft in SCID mice. Also noted: species or system SCID mouse. The note with it: Table 4; 100 mg/kg PO QD Day 0-38; combinations with 17a 6 mg/kg PO QD. As to the method:
OCI-LY10 cells were cultured in an IMDM medium containing 20% FBS and maintained in a 5% CO2 incubator at 37° C. with saturated humidity. OCI-LY10 cells of logarithmic phase were collected and resuspended in an IMDM basic medium containing 50% Matrigel, and the cell concentration was adjusted to 5×10^7/ml. Subcutaneous inoculation of 0.1 ml of the cell suspension was performed aseptically in the right dorsum of mice at a concentration of 5×10^6/0.1 ml/mouse. Once the tumor volume reached about 150 mm^3, the animals were randomly grouped according to tumor volume so that the difference in tumor volume between the groups was less than 10% of the mean value. The date of grouping was recorded as Day 0, and drug administration was started based on the body weight of the animals. During drug administration, body weight of certain animals decreased by more than 15% compared to Day 0 (BWL≥15%), drug administration was discontinued for these animals until their body weight recovered (BWL<15%). The body weight and tumor volume of the animals were measured twice a week during the experiment, and clinical signs were observed and recorded daily.
The efficacy in terms of tumor volume was evaluated by the relative tumor proliferation rate T/C ratio, and T/C (%) was calculated as TRTV/CRTV[…], where TRTV is the relative tumor volume (RTV) of the treatment group and CRTV is the RTV of the negative control group. The RTV was calculated as Vt/V0, where V0 is the tumor volume at the time of grouping and Vt is the tumor volume at each measurement. The drug is considered effective with T/CP≤40% according to NMPA guidelines.
The efficacy in terms of tumor weight was evaluated by TGI (tumor weight inhibition) values, TGI 0%=(TWC−TWT)/TWC×[…], where TWC is tumor weight of control group, and TWT is tumor weight of treatment group. The drug is considered effective with TGI≥58% according to NIH guidelines.

[4] abbreviates: Sprague-Dawley, plasma, PO 10 mg/kg.

Read-outs that look alike come from different tables or passages of the source.

In general, IC50 refers to the concentration that gives 50% inhibition. A word on the AUC(0-t): it is exposure summed from dosing to a finite time, without extrapolation to infinity. Lower therefore signals less exposure. As a reminder, the Cmax is the maximum level reached in the sampled fluid or tissue. Broadly, the Tmax is the time from dosing to the highest level. A word on the bioavailability: it is the share of a dose that reaches the circulation, judged against a reference dose that is usually intravenous. The low end stands for poor availability, the high end for good availability.

T1 sequence (P49674 whole entry): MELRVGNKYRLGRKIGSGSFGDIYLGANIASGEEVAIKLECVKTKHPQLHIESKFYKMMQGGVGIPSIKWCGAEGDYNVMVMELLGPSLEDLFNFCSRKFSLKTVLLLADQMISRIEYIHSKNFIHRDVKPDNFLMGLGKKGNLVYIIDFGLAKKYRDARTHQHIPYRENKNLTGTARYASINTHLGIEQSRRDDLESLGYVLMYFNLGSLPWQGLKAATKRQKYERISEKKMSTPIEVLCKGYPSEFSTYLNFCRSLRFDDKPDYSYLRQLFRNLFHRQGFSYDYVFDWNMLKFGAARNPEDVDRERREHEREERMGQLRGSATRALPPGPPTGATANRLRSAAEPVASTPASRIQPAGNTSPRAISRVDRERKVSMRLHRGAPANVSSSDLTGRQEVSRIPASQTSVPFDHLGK

For `COc1ccc(-c2nn(C(C)c3nc4cccc(Cl)c4c(=O)n3N3CCCCC3)c3ncnc(N)c23)c(F)c1F` (stereo not drawn) [II-C-5, 2-(1-(4-amino-3-(2,3-difluoro-4-methoxyphenyl)-1H-pyrazolo[3,4-d]pyrimidin-1-yl)ethyl)-5-chloro-3-(piperidin-1-yl)quinazolin-4(3H)-one], the IC50 is 299 nM against CK1ε [1] and 307 nM in the data set with OCI-LY10 cells (read-out: IC50).
Consider `COc1ccc(-c2nn([C@@H](C)c3nc4cccc(Cl)c4c(=O)n3-c3ccccc3)c3ncnc(N)c23)c(F)c1F.O=S(=O)(O)O` [II-D-6, (S)-2-(1-(4-amino-3-(2,3-difluoro-4-methoxyphenyl)-1H-pyrazolo[3,4-d]pyrimidin-1-yl)ethyl)-5-chloro-3-phenylquinazolin-4(3H)-one sulfate], for which, in data set [2] (setting [4]), the AUC(0-t) turned out to be 21500 ng·h/mL, the concentration peaked (Cmax) at 2130 ng/mL and the Tmax turned out to be 1.67 h. In addition, in data set [2] (Sprague-Dawley, plasma, PO 10 mg/kg vs IV 1 mg/kg of II-A-7a), the bioavailability is 29.8%. Besides, in data set [2] (salt vs compound in the free state (II-A-7a)), the increase in bioavailability is 3.7 fold.
Regarding `CC(C)Oc1ccc(-c2nn([C@@H](C)c3nc4cccc(F)c4c(=O)n3-c3ccccc3)c3ncnc(N)c23)cc1F` [CUX-031723], the IC50 on CK1ε [3] (WO2017079558A1, read-out: IC50 of CK1ε) was 9360 nM.
Take `CC(C)Oc1ccc(-c2nn(C(C)c3nc4cccc(F)c4c(=O)n3-c3ccccc3)c3ncnc(N)c23)cc1F` (stereo not drawn) [Compound D, reference compound]: the figures for the concentration for half-maximal inhibition (IC50) against CK1ε [1] and in the data set on OCI-LY10 cells (read-out: IC50) were 1290 nM and 746 nM, respectively.
With `CC(C)Oc1ccc(-c2nn(C(C)c3nc4ccccc4c(=O)n3-c3ccccc3)c3ncnc(N)c23)c(F)c1F` (stereo not drawn) [II-A-2, 2-(1-(4-amino-3-(2,3-difluoro-4-isopropoxyphenyl)-1H-pyrazolo[3,4-d]pyrimidin-1-yl)ethyl)-3-phenylquinazolin-4(3H)-one], the IC50 on CK1ε [1] was 145 nM; in the data set on OCI-LY10 cells (read-out: IC50), 234 nM. In addition, at CK1ε [1] (compared to compound A), the “fold increase of inhibitory activity against CK1ε” value was found to be 12 fold.
With `COc1ccc(-c2nn(C(C)c3nc4cccc(Cl)c4c(=O)n3-c3ccccc3)c3ncnc(N)c23)cc1F` (stereo not drawn) [Compound C, reference compound], the 50% inhibitory concentration (IC50) against CK1ε [1] was found to be 701 nM; in the data set on OCI-LY10 cells (read-out: IC50) it was 2700 nM.
At CK1ε [1], `COc1ccc(-c2nn(C(C)c3nc4cccc(Cl)c4c(=O)n3-c3ccccc3)c3ncnc(N)c23)c(F)c1F` (stereo not drawn) [II-A-7, 2-(1-(4-amino-3-(2,3-difluoro-4-methoxyphenyl)-1H-pyrazolo[3,4-d]pyrimidin-1-yl)ethyl)-5-chloro-3-phenylquinazolin-4(3H)-one] had an IC50 of 97 nM. Also, the “fold increase of inhibitory activity against CK1ε” value on CK1ε [1] (compared to compound C) is recorded as 7.2 fold. The IC50 in the data set with OCI-LY10 cells (read-out: IC50) was 22 nM. Moreover, in the data set with OCI-LY10 cells (read-out: IC50 value), the IC50 came to 22 nM. The “fold increase of OCI-LY10 proliferation inhibitory activity” value in the data set on OCI-LY10 cells (compared to compound C) was determined as 123 fold. In addition, in the data set with OCI-LY10 xenograft tumor, the “RTV Day 39” value was 2.23 ± 0.15, the “T/C (%) Day 39” value is reported as 32.35%, the “TGI (%)” value amounted to 66.29% and the “Tumor weight” value came out at 0.269 ± 0.028 g.
Turning to `COc1ccc(-c2nn(C(C)c3nc4cccc(Cl)c4c(=O)n3-c3cccnc3)c3ncnc(N)c23)c(F)c1F` (stereo not drawn) [II-B-2, 2-(1-(4-amino-3-(2,3-difluoro-4-methoxyphenyl)-1H-pyrazolo[3,4-d]pyrimidin-1-yl)ethyl)-5-chloro-3-(pyridin-3-yl)quinazolin-4(3H)-one], the IC50 at CK1ε [1] is 372 nM; in the data set with OCI-LY10 cells (read-out: IC50), 193 nM.
In turn, `CC(c1nc2ccccc2c(=O)n1-c1ccccc1)n1nc(-c2ccc(OC3CC3)c(F)c2F)c2c(N)ncnc21` (stereo not drawn) [II-A-4, 2-(1-(4-amino-3-(4-cyclopropoxy-2,3-difluorophenyl)-1H-pyrazolo[3,4-d]pyrimidin-1-yl)ethyl)-3-phenylquinazolin-4(3H)-one] had an IC50 against CK1ε [1] of 234 nM. Moreover, the “fold increase of inhibitory activity against CK1ε” value on CK1ε [1] (compared to compound B) is recorded as 12 fold.
Take `COc1ccc(-c2nn(C(C)c3nc4cccc(F)c4c(=O)n3-c3ccccc3)c3ncnc(N)c23)c(F)c1F` (stereo not drawn) [II-A-8, 2-(1-(4-amino-3-(2,3-difluoro-4-methoxyphenyl)-1H-pyrazolo[3,4-d]pyrimidin−1-yl)ethyl)-5-fluoro-3-phenylquinazolin-4(3H)-one]: on CK1ε [1], the IC50 turned out to be 118 nM.
`CC(C)Oc1ccc(-c2nn(C(C)c3nc4cccc(F)c4c(=O)n3-c3ccccc3)c3ncnc(N)c23)c(F)c1F` (stereo not drawn) [II-A-16, 2-(1-(4-amino-3-(2,3-difluoro-4-isopropoxyphenyl)-1H-pyrazolo[3,4-d]pyrimidin-1-yl)ethyl)-5-fluoro-3-phenylquinazolin-4(3H)-one] showed an IC50 at CK1ε [1] of 100 nM. For the same compound, the “fold increase of inhibitory activity against CK1ε” value at CK1ε [1] (compared to CUX-031773) was 93.6 fold; on CK1ε [1] (compared to compound D), 12.9 fold.
With `CC[C@@H](c1nc2cccc(F)c2c(=O)n1-c1ccccc1)n1nc(-c2ccc(OC(C)C)c(F)c2)c2c(N)ncnc21` [CUX-03166], the IC50 at CK1ε [3] (literature values in WO2017079558A1, read-out: CK1ε (IC50)) was 81200 nM.
On to `COc1ccc(-c2nn(C(C)c3nc4ccccc4c(=O)n3-c3ccccc3)c3ncnc(N)c23)c(F)c1F` (stereo not drawn) [II-A-1, 2-(1-(4-amino-3-(2,3-difluoro-4-methoxyphenyl)-1H-pyrazolo[3,4-d]pyrimidin-1-yl)ethyl)-3-phenylquinazolin-4(3H)-one], for which the IC50 against CK1ε [1] turned out to be 164 nM. The IC50 in the data set with OCI-LY10 cells (read-out: IC50) is 142 nM. In addition, in the data set with OCI-LY10 xenograft tumor, the “RTV Day 39” value amounted to 2.45 ± 0.50, the “T/C (%) Day 39” value came out at 35.40%, the “TGI (%)” value is 63.91% and the “Tumor weight” value was determined as 0.288 ± 0.064 g.

The values are drawn from patent US20220251092A1, “CASEIN KINASE 1EPSILON INHIBITOR, PHARMACEUTICAL COMPOSITION AND APPLICATION THEREOF” (HANGZHOU HEALZEN THERAPEUTICS CO., LTD., priority 2019, published 2022).
